Test results from US9901592B2 (priority 2008, dated 2018).
In brackets after ≈: the same amount, converted by molar mass. Several values for one entry are separate records, joined by “and”; a condition that tells them apart may be missing. Identical values can stand only once. Like-named read-outs stand apart in the source and are kept apart here.

What was measured:
N. meningitidis = assay: MIC, CLSI broth microdilution, invasive isolates; assay type: cell-based; conditions: Neisseria meningitidis; 62 N. meningitidis isolates
Method: Example. […] Colonization of the nasopharynx (NP) by NM can lead to invasive meningococcal disease. Chemoprophylaxis is used to eradicate NP colonization and prevent transmission to nonimmune contacts. […] 62 isolates (91.9% blood culture) of NM were collected from 29 medical centers in North and South America and Europe (1997-2008). […] Serological identification was performed for serogroups (SGs) B, C, Y and W135.

S. aureus = assay: mouse systemic infection model (PD50); assay type: in vivo
pneumococci = assay: microbe, parasite or virus in culture; assay type: cell-based, S. pneumoniae
H. influenzae ATCC 49247 = assay: post-antibiotic effect (PAE) testing; conditions: H. influenzae ATCC 49247; 4X MIC; exposure 1 hour
S. pneumoniae [1] = assay: neutropenic mouse thigh infection; assay type: in vivo; conditions: PO
Method: Example. Neutropenic Mouse Thigh Infection. Mice were rendered neutropenic with IP injections of cyclophosamide at day −4 and day −1 of 150 mg/Kg and 100 mg/Kg, respectively. On day 0 mice were infected with approximately 5×10^5 CFU/ml of bacteria in a 0.1 ml volume into the right thigh. At 1.5 hours post infection mice received treatment via oral gavage. One group of infected mice were euthanized and thigh processed for bacterial titers to serve as T=0 controls. Twenty-four hours post treatment, the remaining mice were euthanized, thighs aseptically removed, weighed, homogenized, serially diluted and plated on bacterial growth media. CFUs per gram of thigh were calculated after overnight incubation of bacterial plates. The amount of test article required to achieve 1, 2, and 3 loge reductions from 24 hour control thighs were calculated. Additional studies were performed that fractionated the single treatment dose (Q24) into two (Q12), three (Q8) and four (Q6) equivalent doses to determine the pharmacodynamic nature of this compound. Further analysis includes static dose, EC50, 1 log kill and maximal effect (Emax).

S. pneumoniae [2] = assay: MIC of the strains of the mouse systemic infection model; assay type: cell-based; conditions: Streptococcus pneumoniae
S. pneumoniae [3] = assay: microbe, parasite or virus in culture; assay type: cell-based
S. pneumoniae [4] = assay type: cell-based; conditions: for Mutant selection frequencies: S. pneumoniae
S. pyogenes 3029 = assay: Intraperitoneal (IP) mouse infection model (ED50); assay type: in vivo; conditions: Streptococcus pyogenes, MAC-R S. pyogenes 3029
[5] = tested on: viridans group streptococci (VGS); assay type: cell-based; conditions: VGS (51)
S. pyogenes [6] = assay type: cell-based; set-up: MIC: unit not given beside the values; conditions: for MIC50 / MIC90: Streptococcus pyogenes
S. pyogenes [7] = assay: mouse systemic infection model (PD50); assay type: in vivo
U. parvum = assay: MIC testing in 10B broth (colour change); assay type: cell-based, Ureaplasma parvum
U. urealyticum = assay: MIC testing in 10B broth (colour change); assay type: cell-based; conditions: U. urealyticum (10 isolates)
[8] = Streptococcus pneumoniae, pneumococci, L4 mutations (27)
[9] = S. pyogenes TEL R, Macr-R, 10 strains
[10] = S. pyogenes TEL S, Macr-R, 30 strains
[11] = S. pyogenes TEL S, Macr-S, 10 strains

Which results are given for `CC[C@H]1OC(=O)[C@H](C)C(=O)[C@H](C)[C@@H](O[C@@H]2O[C@H](C)C[C@H](N(C)C)[C@H]2O)[C@](C)(OC)C[C@@H](C)C(=O)[C@H](C)[C@H]2N(CCCCn3cnc(-c4cccnc4)c3)C(=O)O[C@]12C` [TEL, telithromycin]?
MIC (N. meningitidis): 0.015 to 0.12 µg/mL (≈ 0.0185 to 0.148 µM); MIC50 (N. meningitidis): ≤ 0.015 µg/mL; MIC90 (N. meningitidis): 0.03 µg/mL (≈ 0.0369 µM); PD50 (S. aureus; MRSA 300 (CA)): 9.2 mg/kg; PD50 (S. aureus; S. aureus, single oral dose 1 hr post infection): >30 mg/kg; MIC Range (pneumococci): 0.03 to 2 µg/mL; MIC range (pneumococci): 0.015 to 1 µg/mL and 0.03 to 2 µg/mL and 0.03 to 0.5 µg/mL and 0.03 to 0.06 µg/mL; MIC50 (pneumococci; [8]): 0.125 µg/mL (≈ 0.154 µM); MIC90 (pneumococci; [8]): 0.25 µg/mL (≈ 0.308 µM); MIC (pneumococci; Streptococcus pneumoniae, read-out: MIC range): 0.015 to 0.03 µg/mL (≈ 0.0185 to 0.0369 µM); MIC (pneumococci; Streptococcus pneumoniae, read-out: MIC range, pneumococci, L4 mutations (27)): 0.06 to 0.25 µg/mL (≈ 0.0739 to 0.308 µM); PAE (H. influenzae ATCC 49247): 1.2 h; Max. change in log10CFUs from 24 hr. controls (S. pneumoniae [1]; S. pneumoniae 1629): −6.82 log10CFUs; Dose for 2 log10 Reduction from 24 hour controls (S. pneumoniae [1]; S. pneumoniae 1629, QD): 13.2 mg/Kg; Max. change in log10CFUs from 24 hr. controls (S. pneumoniae [1]; S. pneumoniae 6303): −5.27 log10CFUs; MIC (S. pneumoniae [2]; S. pneumoniae (macrolide susceptible)): < 0.06 µg/mL; MIC (S. pneumoniae [2]; S. pneumoniae (mefR), read-out: MIC): 0.25 µg/mL; MIC (S. pneumoniae [2]; S. pneumoniae serotype 19A, read-out: MIC): 0.5 µg/mL; MIC 90% (S. pneumoniae [3]): 0.5 µg/mL (≈ 0.616 µM); susceptible (S. pneumoniae [3]): 100.0%; MIC90 (S. pneumoniae [3]; Streptococcus pneumoniae): 1 µg/mL (≈ 1.23 µM); Mutant selection frequencies (S. pneumoniae [4]; at 2×MIC): 1.1×10^−9-1.3×10^−4; Mutant selection frequencies (S. pneumoniae [4]; at 8×MIC): <1.5×10^−10-4.8×10^−6; single step mutation frequency (S. pneumoniae [4]; strain 24 Macrolide-R [erm(B)], 2 × MIC): 1.3 × 10^−4; single step mutation frequency (S. pneumoniae [4]; strain 24 Macrolide-R [erm(B)], 4 × MIC): 2.5 × 10^−6; single step mutation frequency (S. pneumoniae [4]; strain 24 Macrolide-R [erm(B)], 8 × MIC): 1.7 × 10^−6; single step mutation frequency (S. pneumoniae [4]; strain 1076 Macrolide-R [erm(B)&mef(A)], 2 × MIC): 6.5 × 10^−6; single step mutation frequency (S. pneumoniae [4]; strain 1076 Macrolide-R [erm(B)&mef(A)], 4 × MIC): 9.7 × 10^−6; single step mutation frequency (S. pneumoniae [4]; strain 1076 Macrolide-R [erm(B)&mef(A)], 8 × MIC): 4.8 × 10^−6; single step mutation frequency (S. pneumoniae [4]; strain 1077 Macrolide-S, 2 × MIC): 1.1 × 10^−9; single step mutation frequency (S. pneumoniae [4]; strain 1077 Macrolide-S, 4 × MIC): <5.5 × 10^−10; single step mutation frequency (S. pneumoniae [4]; strain 1077 Macrolide-S, 8 × MIC): <5.5 × 10^−10; single step mutation frequency (S. pneumoniae [4]; strain 1635 Macrolide-R [erm(A)], 2 × MIC): <2.7 × 10^−9; single step mutation frequency (S. pneumoniae [4]; strain 1635 Macrolide-R [erm(A)], 4 × MIC): <2.7 × 10^−9; single step mutation frequency (S. pneumoniae [4]; strain 1635 Macrolide-R [erm(A)], 8 × MIC): <2.7 × 10^−9; single step mutation frequency (S. pneumoniae [4]; strain 2686 Macrolide-R [L4 mutation], 2 × MIC): 2.2 × 10^−5; single step mutation frequency (S. pneumoniae [4]; strain 2686 Macrolide-R [L4 mutation], 4 × MIC): 2.2 × 10^−9; single step mutation frequency (S. pneumoniae [4]; strain 2686 Macrolide-R [L4 mutation], 8 × MIC): <1.1 × 10^−9; single step mutation frequency (S. pneumoniae [4]; strain 3009 Macrolide-R [23S rRNA mutation], 2 × MIC): 3.8 × 10^−7; single step mutation frequency (S. pneumoniae [4]; strain 3009 Macrolide-R [23S rRNA mutation], 4 × MIC): <1.5 × 10^−10; single step mutation frequency (S. pneumoniae [4]; strain 3009 Macrolide-R [23S rRNA mutation], 8 × MIC): <1.5 × 10^−10; single step mutation frequency (S. pneumoniae [4]; strain 3665 Macrolide-R [mef(A)], 2 × MIC): 7.5 × 10^−9; single step mutation frequency (S. pneumoniae [4]; strain 3665 Macrolide-R [mef(A)], 4 × MIC): 2.5 × 10^−9; single step mutation frequency (S. pneumoniae [4]; strain 3665 Macrolide-R [mef(A)], 8 × MIC): <2.5 × 10^−10; single step mutation frequency (S. pneumoniae [4]; strain 7127 Macrolide-S [S20N in L4, A105V in L22], 2 × MIC): <5.0 × 10^−9; single step mutation frequency (S. pneumoniae [4]; strain 7127 Macrolide-S [S20N in L4, A105V in L22], 4 × MIC): <5.0 × 10^−9; single step mutation frequency (S. pneumoniae [4]; strain 7127 Macrolide-S [S20N in L4, A105V in L22], 8 × MIC): <5.0 × 10^−9; ED50 (S. pyogenes 3029): > 150 mg/kg; MIC50 [5]: 0.015 µg/mL (≈ 0.0185 µM); MIC90 [5]: 0.25 µg/mL (≈ 0.308 µM); MIC Range [5]: ≦0.008-0.5 μg/ml; MIC (S. pyogenes [6]; MAC-R S. pyogenes 3029): (16); MIC50 (S. pyogenes [6]; [9]): 32 µg/mL (≈ 39.4 µM); MIC90 (S. pyogenes [6]; [9]): 32 µg/mL (≈ 39.4 µM); MIC50 (S. pyogenes [6]; [10]): 0.125 µg/mL (≈ 0.154 µM); MIC90 (S. pyogenes [6]; [10]): 0.5 µg/mL (≈ 0.616 µM); MIC50 (S. pyogenes [6]; [11]): 0.03 µg/mL (≈ 0.0369 µM); MIC90 (S. pyogenes [6]; [11]): 0.03 µg/mL (≈ 0.0369 µM); PD50 (S. pyogenes [7]; S. pyogenes (erythromycin R)): 4.4 mg/kg; PD50 (S. pyogenes [7]; S. pyogenes (macrolide susceptible)): 7.8 mg/kg; MIC Range (U. parvum; U. parvum (10 isolates)): 0.008 to 0.063 µg/mL; MIC50 (U. parvum; Ureaplasma parvum): 0.063 µg/mL (≈ 0.0776 µM); MIC90 (U. parvum; Ureaplasma parvum): 0.125 µg/mL (≈ 0.154 µM); MIC Range (U. urealyticum): 0.016 to 0.25 µg/mL; MIC50 (U. urealyticum; Ureaplasma urealyticum): 0.063 µg/mL (≈ 0.0776 µM); MIC90 (U. urealyticum; Ureaplasma urealyticum): 0.25 µg/mL (≈ 0.308 µM)
